{"source": "patent US8758816B2", "about": "“Compositions comprising azelastine and methods of use thereof” (priority 2004, dated 2014)", "key": {"[1]": {"tested_on": "patients with seasonal allergic rhinitis (SAR)", "assay": "MP 428 study: adverse events, Safety Population", "type": "in vivo, human", "protocol": "A two-week, randomized, double-blind study, which evaluated the effects of the co-administration of ASTELIN® (azelastine hydrochloride (HCl)) and FLONASE® (fluticasone propionate) compared to either product alone in patients with seasonal allergic rhinitis (SAR) was conducted during the 2006 Texas mountain cedar season. After a 5-day placebo lead-in period, 151 patients with moderate-to-severe allergic rhinitis symptoms were randomized to either: (1) (49 total patients) ASTELIN® (azelastine hydrochloride (HCl)) plus placebo saline nasal spray 2 sprays per nostril, 15 minutes apart, twice daily (AM & PM); (2) (50 total patients) FLONASE® (fluticasone propionate) plus placebo saline nasal spray, 2 sprays per nostril, 15 minutes apart, once daily (AM) and two sessions of placebo saline nasal spray, 2 sprays per nostril, 15 minutes apart (PM); or (3) (52 total patients) the co-administration of ASTELIN® (azelastine hydrochloride (HCl)) 2 sprays per nostril plus FLONASE® (fluticasone propionate) 2 sprays per nostril (AM), 15 minutes apart, and ASTELIN® (azelastine hydrochloride (HCl)) 2 sprays per nostril plus placebo saline nasal spray, 15 minutes apart, (PM) for a 2-week double-blind treatment period.\nThe most common adverse events (AEs) were bitter taste (8.2% in ASTELIN® (azelastine hydrochloride (HCl)) group, 2.0% in FLONASE® (fluticasone propionate) group, 13.5% in co-administration group) and headache (4.1% in ASTELIN® (azelastine hydrochloride (HCl)) group, 4.0% in FLONASE® (fluticasone propionate) group, 5.8% in co-administration group). No other AE was reported by more than one patient in any treatment group. There were no discontinuations due to AEs."}, "[2]": {"tested_on": "patients with seasonal allergic rhinitis (SAR)", "assay": "MP 428 study: Adult Rhinoconjunctivitis Quality of Life Questionnaire outcomes, change from baseline", "type": "in vivo, human", "settings": "Day 14/ET; Intent-to-Treat Population"}}, "data": [{"smiles": "CCC(=O)O[C@]1(C(=O)SCF)[C@H](C)C[C@H]2[C@@H]3C[C@H](F)C4=CC(=O)C=C[C@]4(C)[C@@]3(F)[C@@H](O)C[C@@]21C", "note": "[Fluticasone, fluticasone propionate]", "values": [{"measurement": "Treatment-Emergent AE: MYALGIA", "setting": "[1]; max severity Mild", "result": "0 (0.0) No. of Patients (%)"}, {"measurement": "Treatment-Emergent AE: NASAL DISCOMFORT", "setting": "[1]; max severity Mild", "result": "0 (0.0) No. of Patients (%)"}, {"measurement": "Treatment-Emergent AE: NECK PAIN", "setting": "[1]; max severity Mild", "result": "0 (0.0) No. of Patients (%)"}, {"measurement": "Treatment-Emergent AE: NERVOUS SYSTEM DISORDERS, Any Preferred Term", "setting": "[1]; max severity Mild", "result": "2 (4.0) No. of Patients (%)"}, {"measurement": "Treatment-Emergent AE: PHARYNGOLARYNGEAL PAIN", "setting": "[1]; max severity Mild", "result": "0 (0.0) No. of Patients (%)"}, {"measurement": "Treatment-Emergent AE: RESPIRATORY, THORACIC AND MEDIASTINAL DISORDERS, Any Preferred Term", "setting": "[1]; max severity Mild", "result": "0 (0.0) No. of Patients (%)"}, {"measurement": "Treatment-Emergent AE: STOMACH DISCOMFORT", "setting": "[1]; max severity Mild", "result": "0 (0.0) No. of Patients (%)"}, {"measurement": "Treatment-Emergent AE: Any Adverse Event", "setting": "[1]; max severity Moderate", "result": "1 (2.0) No. of Patients (%)"}, {"measurement": "Treatment-Emergent AE: DRY MOUTH", "setting": "[1]; max severity Moderate", "result": "0 (0.0) No. of Patients (%)"}, {"measurement": "Treatment-Emergent AE: DYSGEUSIA", "setting": "[1]; max severity Moderate", "result": "0 (0.0) No. of Patients (%)"}, {"measurement": "Treatment-Emergent AE: EAR AND LABYRINTH DISORDERS, Any Preferred Term", "setting": "[1]; max severity Moderate", "result": "0 (0.0) No. of Patients (%)"}, {"measurement": "Treatment-Emergent AE: EAR PAIN", "setting": "[1]; max severity Moderate", "result": "0 (0.0) No. of Patients (%)"}, {"measurement": "Treatment-Emergent AE: EPISTAXIS", "setting": "[1]; max severity Moderate", "result": "0 (0.0) No. of Patients (%)"}, {"measurement": "Treatment-Emergent AE: GASTROINTESTINAL DISORDERS, Any Preferred Term", "setting": "[1]; max severity Moderate", "result": "1 (2.0) No. of Patients (%)"}, {"measurement": "Treatment-Emergent AE: HEADACHE", "setting": "[1]; max severity Moderate", "result": "0 (0.0) No. of Patients (%)"}, {"measurement": "Treatment-Emergent AE: MUSCULOSKELETAL AND CONNECTIVE TISSUE DISORDERS, Any Preferred Term", "setting": "[1]; max severity Moderate", "result": "0 (0.0) No. of Patients (%)"}, {"measurement": "Treatment-Emergent AE: MYALGIA", "setting": "[1]; max severity Moderate", "result": "0 (0.0) No. of Patients (%)"}, {"measurement": "Treatment-Emergent AE: NASAL DISCOMFORT", "setting": "[1]; max severity Moderate", "result": "0 (0.0) No. of Patients (%)"}, {"measurement": "Treatment-Emergent AE: NECK PAIN", "setting": "[1]; max severity Moderate", "result": "0 (0.0) No. of Patients (%)"}, {"measurement": "Treatment-Emergent AE: NERVOUS SYSTEM DISORDERS, Any Preferred Term", "setting": "[1]; max severity Moderate", "result": "0 (0.0) No. of Patients (%)"}, {"measurement": "Treatment-Emergent AE: PHARYNGOLARYNGEAL PAIN", "setting": "[1]; max severity Moderate", "result": "0 (0.0) No. of Patients (%)"}, {"measurement": "Treatment-Emergent AE: RESPIRATORY, THORACIC AND MEDIASTINAL DISORDERS, Any Preferred Term", "setting": "[1]; max severity Moderate", "result": "0 (0.0) No. of Patients (%)"}, {"measurement": "Treatment-Emergent AE: STOMACH DISCOMFORT", "setting": "[1]; max severity Moderate", "result": "1 (2.0) No. of Patients (%)"}, {"measurement": "Treatment-Emergent AE: Any Adverse Event", "setting": "[1]; max severity Severe", "result": "0 (0.0) No. of Patients (%)"}, {"measurement": "Treatment-Emergent AE: DRY MOUTH", "setting": "[1]; max severity Severe", "result": "0 (0.0) No. of Patients (%)"}, {"measurement": "Treatment-Emergent AE: DYSGEUSIA", "setting": "[1]; max severity Severe", "result": "0 (0.0) No. of Patients (%)"}, {"measurement": "Treatment-Emergent AE: EAR AND LABYRINTH DISORDERS, Any Preferred Term", "setting": "[1]; max severity Severe", "result": "0 (0.0) No. of Patients (%)"}, {"measurement": "Treatment-Emergent AE: EAR PAIN", "setting": "[1]; max severity Severe", "result": "0 (0.0) No. of Patients (%)"}, {"measurement": "Treatment-Emergent AE: EPISTAXIS", "setting": "[1]; max severity Severe", "result": "0 (0.0) No. of Patients (%)"}, {"measurement": "Treatment-Emergent AE: GASTROINTESTINAL DISORDERS, Any Preferred Term", "setting": "[1]; max severity Severe", "result": "0 (0.0) No. of Patients (%)"}, {"measurement": "Treatment-Emergent AE: HEADACHE", "setting": "[1]; max severity Severe", "result": "0 (0.0) No. of Patients (%)"}, {"measurement": "Treatment-Emergent AE: MUSCULOSKELETAL AND CONNECTIVE TISSUE DISORDERS, Any Preferred Term", "setting": "[1]; max severity Severe", "result": "0 (0.0) No. of Patients (%)"}, {"measurement": "Treatment-Emergent AE: MYALGIA", "setting": "[1]; max severity Severe", "result": "0 (0.0) No. of Patients (%)"}, {"measurement": "Treatment-Emergent AE: NASAL DISCOMFORT", "setting": "[1]; max severity Severe", "result": "0 (0.0) No. of Patients (%)"}, {"measurement": "Treatment-Emergent AE: NECK PAIN", "setting": "[1]; max severity Severe", "result": "0 (0.0) No. of Patients (%)"}, {"measurement": "Treatment-Emergent AE: NERVOUS SYSTEM DISORDERS, Any Preferred Term", "setting": "[1]; max severity Severe", "result": "0 (0.0) No. of Patients (%)"}, {"measurement": "Treatment-Emergent AE: PHARYNGOLARYNGEAL PAIN", "setting": "[1]; max severity Severe", "result": "0 (0.0) No. of Patients (%)"}, {"measurement": "Treatment-Emergent AE: RESPIRATORY, THORACIC AND MEDIASTINAL DISORDERS, Any Preferred Term", "setting": "[1]; max severity Severe", "result": "0 (0.0) No. of Patients (%)"}, {"measurement": "Treatment-Emergent AE: STOMACH DISCOMFORT", "setting": "[1]; max severity Severe", "result": "0 (0.0) No. of Patients (%)"}, {"measurement": "adverse event: bitter taste", "setting": "[1]; share of treatment group", "result": 2.0, "unit": "%"}, {"measurement": "adverse event: headache", "setting": "[1]; share of treatment group", "result": 4.0, "unit": "%"}, {"measurement": "RQLQ Change From Baseline in Activity, LS Mean", "setting": "[2]", "result": "−1.52"}, {"measurement": "RQLQ Change From Baseline in Activity, Mean", "setting": "[2]", "result": "−1.50"}, {"measurement": "RQLQ Change From Baseline in Activity, Median", "setting": "[2]", "result": "−1.33"}, {"measurement": "RQLQ Change From Baseline in Emotional, LS Mean", "setting": "[2]", "result": "−1.42"}, {"measurement": "RQLQ Change From Baseline in Emotional, Mean", "setting": "[2]", "result": "−1.50"}, {"measurement": "RQLQ Change From Baseline in Emotional, Median", "setting": "[2]", "result": "−1.25"}, {"measurement": "RQLQ Change From Baseline in Eye Symptoms, LS Mean", "setting": "[2]", "result": "−1.51"}, {"measurement": "RQLQ Change From Baseline in Eye Symptoms, Mean", "setting": "[2]", "result": "−1.53"}, {"measurement": "RQLQ Change From Baseline in Eye Symptoms, Median", "setting": "[2]", "result": "−1.75"}, {"measurement": "RQLQ Change From Baseline in Nasal Symptoms, LS Mean", "setting": "[2]", "result": "−1.72"}, {"measurement": "RQLQ Change From Baseline in Nasal Symptoms, Mean", "setting": "[2]", "result": "−1.74"}, {"measurement": "RQLQ Change From Baseline in Nasal Symptoms, Median", "setting": "[2]", "result": "−1.50"}, {"measurement": "RQLQ Change From Baseline in Non-nose/eye Symptoms, LS Mean", "setting": "[2]", "result": "−1.19"}, {"measurement": "RQLQ Change From Baseline in Non-nose/eye Symptoms, Mean", "setting": "[2]", "result": "−1.23"}, {"measurement": "RQLQ Change From Baseline in Non-nose/eye Symptoms, Median", "setting": "[2]", "result": "−1.14"}, {"measurement": "RQLQ Change From Baseline in Overall Score, LS Mean", "setting": "[2]", "result": "−1.47"}, {"measurement": "RQLQ Change From Baseline in Overall Score, Mean", "setting": "[2]", "result": "−1.49"}, {"measurement": "RQLQ Change From Baseline in Overall Score, Median", "setting": "[2]", "result": "−1.37"}, {"measurement": "RQLQ Change From Baseline in Practical Problems, LS Mean", "setting": "[2]", "result": "−1.74"}, {"measurement": "RQLQ Change From Baseline in Practical Problems, Mean", "setting": "[2]", "result": "−1.76"}, {"measurement": "RQLQ Change From Baseline in Practical Problems, Median", "setting": "[2]", "result": "−1.67"}, {"measurement": "RQLQ Change From Baseline in Sleep, LS Mean", "setting": "[2]", "result": "−1.23"}, {"measurement": "RQLQ Change From Baseline in Sleep, Mean", "setting": "[2]", "result": "−1.26"}, {"measurement": "RQLQ Change From Baseline in Sleep, Median", "setting": "[2]", "result": "−1.33"}]}]}
